Reference: ChEMBL document CHEMBL3774354, “Discovery of Selective Histone Deacetylase 6 Inhibitors Using the Quinazoline as the Cap for the Treatment of Cancer” (J Med Chem, 2016)
The source made the active and inactive calls. No cut-off for these calls is given here.

Legend:
[1] = system: HepG2; assay: Cytotoxicity against human HepG2 cells after 72 hrs by MTT assay; type: functional, cell-based; conditions: HepG2, 72 h
[2] = system: A549; assay: Cytotoxicity against human A549 cells after 72 hrs by MTT assay; type: functional, cell-based; conditions: A549, 72 h
[3] = Cmax in Sprague-Dawley rat at 12 mg/kg, po measured up to 24 hrs by LC-MS/MS analysis; type: ADME, organism-based; set-up: dose 12 mg/kg, route oral; conditions: in vivo
[4] = Cytotoxicity against human U266 cells after 72 hrs by MTT assay; type: functional, cell-based; conditions: U-266, 72 h
[5] = system: HeLa; assay: Antiproliferative activity against human HeLa cells after 72 hrs by MTT assay; type: functional, cell-based
[6] = system: Mus musculus; assay: Toxicity in NOD/SCID mouse xenografted with human MV4-11 cells assessed as change in body weight at 50 mg/kg, iv q2d for 12 days; type: organism-based; conditions: in vivo, 288 h
[7] = Cytotoxicity against human HCT116 cells after 72 hrs by MTT assay; type: functional, cell-based; conditions: HCT-116, 72 h
[8] = Cytotoxicity against human H460 cells after 72 hrs by MTT assay; type: functional, cell-based; conditions: NCI-H460, 72 h
[9] = target: Histone deacetylase 5 (Homo sapiens, UniProt Q9UQL6)
Description: Inhibition of recombinant HDAC5 (unknown origin) using AMC labeled AC-peptide as substrate incubated for 1 hr by fluorescence analysis

[10] = system: HT-29; assay: Cytotoxicity against human HT-29 cells after 72 hrs by MTT assay; type: functional, cell-based; conditions: HT-29, 72 h
[11] = Antitumor activity against human HCT116 cells xenografted in Balb/c nude mouse assessed as tumor mass change at 25 mg/kg, po q2d for 8 days; type: functional, HCT-116
[12] = Volume of distribution at steady state in Sprague-Dawley rat at 12 mg/kg, iv administered by bolus injection measured up to 24 hrs by LC-MS/MS analysis; type: ADME, organism-based; conditions: in vivo, read-out: Vdss
[13] = system: Ramos; assay: Cytotoxicity against human Ramos cells after 72 hrs by MTT assay; type: functional, cell-based
[14] = target: Histone deacetylase 7 (Homo sapiens) (UniProt Q8WUI4); assay: Inhibition of recombinant HDAC7 (unknown origin) using AMC labeled AC-peptide as substrate at 10 uM incubated for 1 hr by fluorescence analysis
[15] = target: Histone deacetylase 9 (Homo sapiens, UniProt Q9UKV0); assay: Inhibition of recombinant HDAC9 (unknown origin) using AMC labeled AC-peptide as substrate at 10 uM incubated for 1 hr by fluorescence analysis
[16] = target: T1, Protein deacetylase HDAC6 (Homo sapiens) (UniProt Q9UBN7); assay: Inhibition of HDAC6 in human HCT116 cells assessed as upregulation of alpha- tubulin acetylation after 6 hrs by Western blot analysis; type: cell-based; conditions: HCT-116
T1 sequence (whole entry): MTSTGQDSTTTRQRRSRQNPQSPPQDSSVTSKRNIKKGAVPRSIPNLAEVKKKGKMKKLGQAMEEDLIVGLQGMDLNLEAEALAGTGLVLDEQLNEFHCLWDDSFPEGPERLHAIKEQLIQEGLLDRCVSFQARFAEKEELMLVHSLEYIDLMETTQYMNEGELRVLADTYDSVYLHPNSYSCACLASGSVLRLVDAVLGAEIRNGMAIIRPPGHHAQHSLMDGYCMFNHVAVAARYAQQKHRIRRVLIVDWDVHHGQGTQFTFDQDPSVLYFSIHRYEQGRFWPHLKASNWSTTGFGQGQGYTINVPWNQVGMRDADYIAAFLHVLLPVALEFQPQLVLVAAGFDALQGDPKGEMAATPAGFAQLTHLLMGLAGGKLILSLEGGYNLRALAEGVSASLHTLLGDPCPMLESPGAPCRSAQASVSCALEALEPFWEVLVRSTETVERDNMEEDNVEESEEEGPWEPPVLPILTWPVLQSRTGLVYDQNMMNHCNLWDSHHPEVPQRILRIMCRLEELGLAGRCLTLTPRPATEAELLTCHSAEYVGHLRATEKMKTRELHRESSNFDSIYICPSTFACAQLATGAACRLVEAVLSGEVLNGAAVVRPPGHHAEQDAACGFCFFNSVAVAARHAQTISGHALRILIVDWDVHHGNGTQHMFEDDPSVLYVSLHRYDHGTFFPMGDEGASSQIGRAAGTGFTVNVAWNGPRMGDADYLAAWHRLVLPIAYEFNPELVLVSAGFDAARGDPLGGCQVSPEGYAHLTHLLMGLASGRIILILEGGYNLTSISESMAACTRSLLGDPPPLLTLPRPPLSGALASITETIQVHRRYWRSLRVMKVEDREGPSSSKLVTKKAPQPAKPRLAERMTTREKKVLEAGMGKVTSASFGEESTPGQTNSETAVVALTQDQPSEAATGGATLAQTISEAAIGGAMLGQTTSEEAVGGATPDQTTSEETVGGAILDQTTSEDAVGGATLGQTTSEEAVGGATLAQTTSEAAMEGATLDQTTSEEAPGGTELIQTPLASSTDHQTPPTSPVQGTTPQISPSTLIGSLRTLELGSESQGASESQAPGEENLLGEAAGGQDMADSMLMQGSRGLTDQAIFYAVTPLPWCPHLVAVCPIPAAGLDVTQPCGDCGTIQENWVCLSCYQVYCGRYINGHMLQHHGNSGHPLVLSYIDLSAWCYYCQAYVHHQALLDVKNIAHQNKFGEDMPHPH

[17] = system: HeLa; assay: Induction of histone H3 acetylation in human HeLa cells incubated for 6 hrs by cytoblot assay; type: functional, cell-based
[18] = system: Mus musculus; assay: Toxicity in NOD/SCID mouse xenografted with human MV4-11 cells assessed as death at 50 mg/kg, iv q2d for 12 days; type: organism-based; conditions: in vivo, 288 h
[19] = system: MV4-11; assay: Cytotoxicity against human MV4-11 cells after 72 hrs by MTT assay; type: functional, cell-based; conditions: MV4-11, 72 h
[20] = Cytotoxicity against human RPMI8226 cells after 72 hrs by MTT assay; type: functional, cell-based; conditions: RPMI-8226, 72 h
[21] = system: Ramos; assay: Antitumor activity against human Ramos cells xenografted in NOD/SCID mouse assessed as tumor mass change at 80 mg/kg, po q2d for 6 days; type: functional
[22] = target: Histone deacetylase 7 (Homo sapiens, UniProt Q8WUI4)
Description: Inhibition of recombinant HDAC7 (unknown origin) using AMC labeled AC-peptide as substrate incubated for 1 hr by fluorescence analysis

[23] = Antitumor activity against human HCT116 cells xenografted in Balb/c nude mouse assessed as tumor mass change at 50 mg/kg, iv q2d for 9 days; type: functional, HCT-116
[24] = system: Rattus norvegicus; assay: Volume of distribution at steady state in Sprague-Dawley rat at 12 mg/kg, po measured up to 24 hrs by LC-MS/MS analysis; type: ADME, organism-based; conditions: in vivo
[25] = system: Mus musculus; assay: Toxicity in Balb/c nude mouse xenografted with human HCT116 cells assessed as death at 50 mg/kg, iv q2d for 9 days; type: organism-based, HCT-116; conditions: in vivo, 216 h
[26] = target: Histone deacetylase 4 (Homo sapiens, UniProt P56524); assay: Inhibition of recombinant HDAC4 (unknown origin) using AMC labeled AC-peptide as substrate incubated for 1 hr by fluorescence analysis
[27] = target: Histone deacetylase 11 (Homo sapiens) (UniProt Q96DB2); assay: Inhibition of recombinant HDAC11 (unknown origin) using AMC labeled AC-peptide as substrate at 10 uM incubated for 1 hr by fluorescence analysis
[28] = Cmax in Sprague-Dawley rat at 12 mg/kg, iv administered by bolus injection measured up to 24 hrs by LC-MS/MS analysis; type: ADME, organism-based; set-up: dose 12 mg/kg, route intravenous; conditions: in vivo

Sequence of Histone deacetylase 4 (P56524 whole entry): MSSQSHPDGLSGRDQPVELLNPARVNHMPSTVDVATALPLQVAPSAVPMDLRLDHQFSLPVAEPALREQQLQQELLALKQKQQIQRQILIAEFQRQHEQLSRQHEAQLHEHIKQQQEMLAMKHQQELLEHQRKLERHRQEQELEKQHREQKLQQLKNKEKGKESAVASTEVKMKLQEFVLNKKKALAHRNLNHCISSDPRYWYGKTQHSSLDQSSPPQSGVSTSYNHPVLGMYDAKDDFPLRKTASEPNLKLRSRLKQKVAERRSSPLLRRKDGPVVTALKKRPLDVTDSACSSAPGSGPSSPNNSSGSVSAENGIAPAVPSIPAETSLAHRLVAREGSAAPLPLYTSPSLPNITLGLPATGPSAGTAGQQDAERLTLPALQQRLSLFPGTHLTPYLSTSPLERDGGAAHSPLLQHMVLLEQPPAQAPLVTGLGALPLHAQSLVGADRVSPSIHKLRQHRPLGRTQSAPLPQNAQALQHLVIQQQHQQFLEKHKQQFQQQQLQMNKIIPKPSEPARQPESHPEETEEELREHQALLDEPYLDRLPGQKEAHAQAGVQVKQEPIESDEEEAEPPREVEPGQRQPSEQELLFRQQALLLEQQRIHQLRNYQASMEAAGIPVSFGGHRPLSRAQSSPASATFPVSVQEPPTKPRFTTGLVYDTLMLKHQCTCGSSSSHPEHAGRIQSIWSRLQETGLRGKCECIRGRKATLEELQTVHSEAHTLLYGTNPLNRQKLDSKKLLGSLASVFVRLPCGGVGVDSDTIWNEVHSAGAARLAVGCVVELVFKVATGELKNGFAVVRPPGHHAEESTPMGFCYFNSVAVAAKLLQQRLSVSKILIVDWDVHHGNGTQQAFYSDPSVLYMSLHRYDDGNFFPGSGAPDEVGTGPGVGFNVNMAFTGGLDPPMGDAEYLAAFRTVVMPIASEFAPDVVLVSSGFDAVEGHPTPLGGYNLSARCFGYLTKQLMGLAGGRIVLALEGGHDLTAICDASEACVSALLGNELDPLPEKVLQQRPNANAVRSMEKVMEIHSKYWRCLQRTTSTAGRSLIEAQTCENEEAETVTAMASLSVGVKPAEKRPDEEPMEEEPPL
Sequence of Histone deacetylase 9 (Q9UKV0 whole entry): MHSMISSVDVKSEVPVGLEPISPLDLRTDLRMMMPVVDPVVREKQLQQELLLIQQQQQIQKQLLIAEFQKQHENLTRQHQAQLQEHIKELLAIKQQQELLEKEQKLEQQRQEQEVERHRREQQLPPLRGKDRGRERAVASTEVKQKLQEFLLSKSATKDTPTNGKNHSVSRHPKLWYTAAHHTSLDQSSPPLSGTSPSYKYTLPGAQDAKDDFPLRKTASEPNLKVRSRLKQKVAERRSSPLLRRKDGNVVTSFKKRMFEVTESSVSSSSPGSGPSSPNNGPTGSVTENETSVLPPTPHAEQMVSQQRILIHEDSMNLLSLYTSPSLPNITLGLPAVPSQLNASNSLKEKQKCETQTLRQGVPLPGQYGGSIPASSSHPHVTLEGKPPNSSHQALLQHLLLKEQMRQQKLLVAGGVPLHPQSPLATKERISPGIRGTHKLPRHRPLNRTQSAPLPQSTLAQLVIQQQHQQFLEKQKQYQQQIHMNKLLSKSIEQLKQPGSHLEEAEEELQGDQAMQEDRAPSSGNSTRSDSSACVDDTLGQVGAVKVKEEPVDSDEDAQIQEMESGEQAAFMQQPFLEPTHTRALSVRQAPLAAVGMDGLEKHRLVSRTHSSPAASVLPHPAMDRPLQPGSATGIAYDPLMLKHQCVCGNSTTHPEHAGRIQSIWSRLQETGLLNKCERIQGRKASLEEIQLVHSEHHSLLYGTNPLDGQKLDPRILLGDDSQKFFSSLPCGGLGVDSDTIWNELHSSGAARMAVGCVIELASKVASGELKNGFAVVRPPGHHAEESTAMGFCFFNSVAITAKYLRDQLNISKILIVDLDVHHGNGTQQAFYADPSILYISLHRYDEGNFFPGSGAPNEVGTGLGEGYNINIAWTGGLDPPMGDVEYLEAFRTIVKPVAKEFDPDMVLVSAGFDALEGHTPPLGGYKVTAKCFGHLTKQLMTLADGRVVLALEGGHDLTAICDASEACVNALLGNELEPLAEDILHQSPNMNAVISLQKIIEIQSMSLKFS
Sequence of Histone deacetylase 11 (Homo sapiens) (Q96DB2 whole entry): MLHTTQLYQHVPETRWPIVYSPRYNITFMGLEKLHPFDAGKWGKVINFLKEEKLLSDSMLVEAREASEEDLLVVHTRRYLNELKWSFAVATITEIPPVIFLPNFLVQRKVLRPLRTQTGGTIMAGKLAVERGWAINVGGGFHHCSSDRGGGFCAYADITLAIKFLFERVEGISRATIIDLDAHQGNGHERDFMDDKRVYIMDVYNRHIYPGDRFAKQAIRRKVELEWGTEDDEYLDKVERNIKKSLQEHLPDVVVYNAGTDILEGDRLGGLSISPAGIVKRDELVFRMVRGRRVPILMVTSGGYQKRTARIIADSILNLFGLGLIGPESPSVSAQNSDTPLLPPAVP
Sequence of Histone deacetylase 7 (Homo sapiens) (Q8WUI4 whole entry): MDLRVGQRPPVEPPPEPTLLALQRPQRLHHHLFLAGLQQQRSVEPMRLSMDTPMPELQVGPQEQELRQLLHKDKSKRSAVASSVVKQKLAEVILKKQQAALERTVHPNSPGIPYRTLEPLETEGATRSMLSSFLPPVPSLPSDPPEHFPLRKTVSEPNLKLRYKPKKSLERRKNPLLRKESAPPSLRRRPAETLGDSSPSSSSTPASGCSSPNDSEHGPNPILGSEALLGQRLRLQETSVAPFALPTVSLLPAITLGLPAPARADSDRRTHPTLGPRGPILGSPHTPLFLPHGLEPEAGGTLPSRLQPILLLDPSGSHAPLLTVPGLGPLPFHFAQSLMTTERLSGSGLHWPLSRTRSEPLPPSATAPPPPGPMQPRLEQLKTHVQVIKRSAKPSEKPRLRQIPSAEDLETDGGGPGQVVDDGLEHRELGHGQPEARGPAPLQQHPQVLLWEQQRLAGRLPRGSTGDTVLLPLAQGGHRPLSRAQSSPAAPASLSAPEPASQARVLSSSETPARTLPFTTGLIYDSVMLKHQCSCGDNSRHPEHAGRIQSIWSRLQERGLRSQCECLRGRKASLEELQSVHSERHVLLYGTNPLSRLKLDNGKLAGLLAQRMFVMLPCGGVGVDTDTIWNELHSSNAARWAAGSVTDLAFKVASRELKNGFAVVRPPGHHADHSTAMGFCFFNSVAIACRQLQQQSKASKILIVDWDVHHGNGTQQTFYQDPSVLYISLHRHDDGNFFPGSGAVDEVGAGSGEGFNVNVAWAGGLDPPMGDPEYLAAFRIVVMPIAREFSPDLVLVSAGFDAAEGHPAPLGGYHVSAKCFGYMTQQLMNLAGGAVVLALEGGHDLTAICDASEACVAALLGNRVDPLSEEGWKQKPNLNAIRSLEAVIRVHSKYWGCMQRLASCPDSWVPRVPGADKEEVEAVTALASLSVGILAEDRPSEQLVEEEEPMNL
Sequence of Histone deacetylase 7 (Q8WUI4 whole entry): as above
Sequence of Histone deacetylase 5 (Q9UQL6 whole entry): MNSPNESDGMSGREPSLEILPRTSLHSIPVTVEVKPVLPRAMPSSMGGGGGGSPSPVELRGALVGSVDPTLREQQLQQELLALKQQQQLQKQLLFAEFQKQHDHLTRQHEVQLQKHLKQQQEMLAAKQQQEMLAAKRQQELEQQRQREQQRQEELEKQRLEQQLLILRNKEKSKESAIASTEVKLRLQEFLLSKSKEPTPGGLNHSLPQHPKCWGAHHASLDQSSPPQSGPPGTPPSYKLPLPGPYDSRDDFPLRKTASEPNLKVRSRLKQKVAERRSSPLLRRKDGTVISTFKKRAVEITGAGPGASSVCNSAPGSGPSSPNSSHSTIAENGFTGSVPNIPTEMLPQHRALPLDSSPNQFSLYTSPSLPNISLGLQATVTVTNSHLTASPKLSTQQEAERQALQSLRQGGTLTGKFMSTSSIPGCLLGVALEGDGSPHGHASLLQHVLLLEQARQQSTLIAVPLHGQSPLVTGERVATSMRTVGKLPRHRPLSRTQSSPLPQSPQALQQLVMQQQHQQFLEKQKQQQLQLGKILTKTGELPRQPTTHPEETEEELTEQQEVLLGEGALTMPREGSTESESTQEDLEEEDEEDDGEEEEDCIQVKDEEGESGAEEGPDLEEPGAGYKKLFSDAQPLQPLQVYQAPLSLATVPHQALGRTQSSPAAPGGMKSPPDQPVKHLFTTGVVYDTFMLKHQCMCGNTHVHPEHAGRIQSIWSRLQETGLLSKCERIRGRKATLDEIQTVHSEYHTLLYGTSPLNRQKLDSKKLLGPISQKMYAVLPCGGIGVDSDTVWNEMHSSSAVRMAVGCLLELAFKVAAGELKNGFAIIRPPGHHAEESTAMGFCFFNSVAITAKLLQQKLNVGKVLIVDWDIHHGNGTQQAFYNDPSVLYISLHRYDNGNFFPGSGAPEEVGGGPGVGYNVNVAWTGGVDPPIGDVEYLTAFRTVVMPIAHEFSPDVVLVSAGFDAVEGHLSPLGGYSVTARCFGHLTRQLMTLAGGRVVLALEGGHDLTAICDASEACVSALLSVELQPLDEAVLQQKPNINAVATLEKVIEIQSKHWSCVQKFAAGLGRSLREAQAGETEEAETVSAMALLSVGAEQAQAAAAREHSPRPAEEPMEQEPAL

Question: With `COc1ccc(N(C)c2nc(C)nc3ccccc23)cc1OCCCC(=O)NO` as the compound, how does the IC50 [1] read?
Answer: 41 nM

Question: And the IC50 [2]?
Answer: 104 nM

Question: And the Cmax [3]?
Answer: 238 ng/mL

Question: And the IC50 [4]?
Answer: 14 nM

Question: And the IC50 [5]?
Answer: 49 nM

Question: What about the Activity [6] of the same compound?
Answer: -3.8%

Question: And the IC50 [7]?
Answer: 35 nM

Question: And the IC50 [8]?
Answer: 55 nM

Question: What about the IC50 [9] of the same compound?
Answer: > 10000 nM

Question: What about the IC50 [10] of the same compound?
Answer: 72 nM

Question: What about the Activity [11] of the same compound?
Answer: 60.4%

Question: What about the Vd [12] of the same compound?
Answer: 61.3 L/kg

Question: And the IC50 [13]?
Answer: 71 nM

Question: What about the inhibition [14] of the same compound?
Answer: inactive

Question: And the inhibition [15]?
Answer: inactive

Question: What about the inhibition [16] of the same compound?
Answer: Dose-dependent effect

Question: What about the EC50 [17] of the same compound?
Answer: 1740 nM

Question: What about the Activity [18] of the same compound?
Answer: Non-toxic

Question: What about the IC50 [19] of the same compound?
Answer: 60 nM

Question: What about the IC50 [20] of the same compound?
Answer: 15 nM

Question: And the Activity [21]?
Answer: 58.79%

Question: What about the IC50 [22] of the same compound?
Answer: > 10000 nM

Question: What about the Activity [23] of the same compound?
Answer: 76.3%

Question: What about the Vdss [24] of the same compound?
Answer: 154.811 L/kg

Question: And the Activity [25]?
Answer: Non-toxic

Question: What about the IC50 [26] of the same compound?
Answer: > 10000 nM

Question: And the inhibition [27]?
Answer: inactive

Question: What about the Cmax [28] of the same compound?
Answer: 2210 ng/mL
